Measurements: ChEMBL document CHEMBL3885881, “DrugMatrix”

Species on record: Rattus norvegicus
Experiment: DrugMatrix - Regimen: Daily Repeat
Assay type: toxicity, organism-based, Sprague-Dawley
Parameters: regimen Daily Repeat, gender Male, age 6-8 weeks
Conditions: in vivo, po, route oral GAVAGE, vehicle .5 % CMC; for ABSOLUTE BASOPHIL / ABSOLUTE EOSINOPHIL / ABSOLUTE LYMPHOCYTE / ABSOLUTE MONOCYTE / ABSOLUTE SEGMENTED NEUTROPHIL / BASOPHIL / EOSINOPHIL / ERYTHROCYTE COUNT / HEMATOCRIT / HEMOGLOBIN / LEUKOCYTE COUNT / LYMPHOCYTE / MEAN CORPUSCULAR HEMOGLOBIN / MEAN CORPUSCULAR HEMOGLOBIN CONCENTRATION / MEAN CORPUSCULAR VOLUME / MONOCYTE / NEUTROPHIL / NUCLEATED RED BLOOD CELLS / PLATELET COUNT: tissue Blood; for ALANINE AMINOTRANSFERASE / ALBUMIN / ALKALINE PHOSPHATASE / ASPARTATE AMINOTRANSFERASE / BLOOD UREA NITROGEN / CARBON DIOXIDE / CHLORIDE / CHOLESTEROL / CREATINE PHOSPHOKINASE / CREATININE / GLUCOSE / LACTATE DEHYDROGENASE / LIPASE / PHOSPHORUS / POTASSIUM / SODIUM / TOTAL BILIRUBIN / TOTAL PROTEIN / URIC ACID: tissue Plasma
[1] = 34 mg/kg, 72 h, dose level Low, time 3 day
[2] = 34 mg/kg, 120 h, dose level Low, time 5 day
[3] = 364 mg/kg, 72 h, dose level High, time 3 day
[4] = 364 mg/kg, 120 h, dose level High, time 5 day

Cc1cccc(Nc2cc(Cl)nc(SCC(=O)O)n2)c1C [PIRINIXIC ACID]
ABSOLUTE BASOPHIL [1]: 0 CELLS/uL | ABSOLUTE EOSINOPHIL [1]: 24.33 CELLS/uL | ABSOLUTE LYMPHOCYTE [1]: 9231.67 CELLS/uL | ABSOLUTE MONOCYTE [1]: 145 CELLS/uL | ABSOLUTE SEGMENTED NEUTROPHIL [1]: 1199 CELLS/uL | BASOPHIL [1]: 0% | EOSINOPHIL [1]: 0.33% | ERYTHROCYTE COUNT [1]: 5.01 x10E6/uL | HEMATOCRIT [1]: 31.77% | HEMOGLOBIN [1]: 11.67 G/DL | LEUKOCYTE COUNT [1]: 10.6 x10E3/uL | LYMPHOCYTE [1]: 85.67% | MEAN CORPUSCULAR HEMOGLOBIN [1]: 23.3 pg | MEAN CORPUSCULAR HEMOGLOBIN CONCENTRATION [1]: 36.7 G/DL | MEAN CORPUSCULAR VOLUME [1]: 63.5 fL | MONOCYTE [1]: 1.67% | NEUTROPHIL [1]: 12.33% | NUCLEATED RED BLOOD CELLS [1]: 0 /100WBC | PLATELET COUNT [1]: 1123.33 x10E3/uL | ALANINE AMINOTRANSFERASE [1]: 55.67 u/L | ALBUMIN [1]: 4.73 G/DL | ALKALINE PHOSPHATASE [1]: 457.33 u/L | ASPARTATE AMINOTRANSFERASE [1]: 87.33 u/L | BLOOD UREA NITROGEN [1]: 13.33 mg/dL | CARBON DIOXIDE [1]: 36.67 mmol/L | CHLORIDE [1]: 100.33 MEQ/L | CHOLESTEROL [1]: 52.67 mg/dL | CREATINE PHOSPHOKINASE [1]: 447.33 u/L | CREATININE [1]: 0.17 mg/dL | GLUCOSE [1]: 140 mg/dL | LACTATE DEHYDROGENASE [1]: 140 u/L | LIPASE [1]: 8 u/L | PHOSPHORUS [1]: 12.6 mg/dL | POTASSIUM [1]: 6.61 MEQ/L | SODIUM [1]: 143.77 MEQ/L | TOTAL BILIRUBIN [1]: 0.1 mg/dL | TOTAL PROTEIN [1]: 5.83 G/DL | URIC ACID [1]: 0.87 mg/dL | ABSOLUTE BASOPHIL [2]: 0 CELLS/uL | ABSOLUTE EOSINOPHIL [2]: 0 CELLS/uL | ABSOLUTE LYMPHOCYTE [2]: 7298 CELLS/uL | ABSOLUTE MONOCYTE [2]: 306 CELLS/uL | ABSOLUTE SEGMENTED NEUTROPHIL [2]: 1029.33 CELLS/uL | BASOPHIL [2]: 0% | EOSINOPHIL [2]: 0% | ERYTHROCYTE COUNT [2]: 5.39 x10E6/uL | HEMATOCRIT [2]: 34.73% | HEMOGLOBIN [2]: 13.23 G/DL | LEUKOCYTE COUNT [2]: 8.63 x10E3/uL | LYMPHOCYTE [2]: 84.33% | MEAN CORPUSCULAR HEMOGLOBIN [2]: 24.57 pg | MEAN CORPUSCULAR HEMOGLOBIN CONCENTRATION [2]: 38.13 G/DL | MEAN CORPUSCULAR VOLUME [2]: 64.5 fL | MONOCYTE [2]: 3.67% | NEUTROPHIL [2]: 12% | NUCLEATED RED BLOOD CELLS [2]: 0 /100WBC | PLATELET COUNT [2]: 1176.33 x10E3/uL | ALANINE AMINOTRANSFERASE [2]: 55 u/L | ALBUMIN [2]: 4.63 G/DL | ALKALINE PHOSPHATASE [2]: 445.33 u/L | ASPARTATE AMINOTRANSFERASE [2]: 92.67 u/L | BLOOD UREA NITROGEN [2]: 10 mg/dL | CARBON DIOXIDE [2]: 27.67 mmol/L | CHLORIDE [2]: 105 MEQ/L | CHOLESTEROL [2]: 39.67 mg/dL | CREATINE PHOSPHOKINASE [2]: 609.67 u/L | CREATININE [2]: 0.19 mg/dL | GLUCOSE [2]: 179 mg/dL | LACTATE DEHYDROGENASE [2]: 166.33 u/L | LIPASE [2]: 9.33 u/L | PHOSPHORUS [2]: 13.63 mg/dL | POTASSIUM [2]: 5.28 MEQ/L | SODIUM [2]: 147.67 MEQ/L | TOTAL BILIRUBIN [2]: 0.0333 mg/dL | TOTAL PROTEIN [2]: 6.17 G/DL | URIC ACID [2]: 1.6 mg/dL | ABSOLUTE BASOPHIL [3]: 0 CELLS/uL | ABSOLUTE EOSINOPHIL [3]: 0 CELLS/uL | ABSOLUTE LYMPHOCYTE [3]: 6159.33 CELLS/uL | ABSOLUTE MONOCYTE [3]: 64.67 CELLS/uL | ABSOLUTE SEGMENTED NEUTROPHIL [3]: 442.67 CELLS/uL | BASOPHIL [3]: 0% | EOSINOPHIL [3]: 0% | ERYTHROCYTE COUNT [3]: 5.12 x10E6/uL | HEMATOCRIT [3]: 32.3% | HEMOGLOBIN [3]: 11.83 G/DL | LEUKOCYTE COUNT [3]: 6.67 x10E3/uL | LYMPHOCYTE [3]: 92.33% | MEAN CORPUSCULAR HEMOGLOBIN [3]: 23.17 pg | MEAN CORPUSCULAR HEMOGLOBIN CONCENTRATION [3]: 36.63 G/DL | MEAN CORPUSCULAR VOLUME [3]: 63.17 fL | MONOCYTE [3]: 1% | NEUTROPHIL [3]: 6.67% | NUCLEATED RED BLOOD CELLS [3]: 0 /100WBC | PLATELET COUNT [3]: 1033.67 x10E3/uL | ALANINE AMINOTRANSFERASE [3]: 53.33 u/L | ALBUMIN [3]: 4.73 G/DL | ALKALINE PHOSPHATASE [3]: 564 u/L | ASPARTATE AMINOTRANSFERASE [3]: 87 u/L | BLOOD UREA NITROGEN [3]: 12.67 mg/dL | CARBON DIOXIDE [3]: 35.33 mmol/L | CHLORIDE [3]: 102.33 MEQ/L | CHOLESTEROL [3]: 49.67 mg/dL | CREATINE PHOSPHOKINASE [3]: 282.33 u/L | CREATININE [3]: 0.2 mg/dL | GLUCOSE [3]: 142.33 mg/dL | LACTATE DEHYDROGENASE [3]: 143.67 u/L | LIPASE [3]: 8.67 u/L | PHOSPHORUS [3]: 12.8 mg/dL | POTASSIUM [3]: 6.58 MEQ/L | SODIUM [3]: 147.03 MEQ/L | TOTAL BILIRUBIN [3]: 0.1 mg/dL | TOTAL PROTEIN [3]: 5.67 G/DL | URIC ACID [3]: 1 mg/dL | ABSOLUTE BASOPHIL [4]: 0 CELLS/uL | ABSOLUTE EOSINOPHIL [4]: 0 CELLS/uL | ABSOLUTE LYMPHOCYTE [4]: 6969 CELLS/uL | ABSOLUTE MONOCYTE [4]: 193.33 CELLS/uL | ABSOLUTE SEGMENTED NEUTROPHIL [4]: 904.33 CELLS/uL | BASOPHIL [4]: 0% | EOSINOPHIL [4]: 0% | ERYTHROCYTE COUNT [4]: 5.24 x10E6/uL | HEMATOCRIT [4]: 32.1% | HEMOGLOBIN [4]: 12.47 G/DL | LEUKOCYTE COUNT [4]: 8.07 x10E3/uL | LYMPHOCYTE [4]: 87.33% | MEAN CORPUSCULAR HEMOGLOBIN [4]: 23.8 pg | MEAN CORPUSCULAR HEMOGLOBIN CONCENTRATION [4]: 38.8 G/DL | MEAN CORPUSCULAR VOLUME [4]: 61.27 fL | MONOCYTE [4]: 2.33% | NEUTROPHIL [4]: 10.33% | NUCLEATED RED BLOOD CELLS [4]: 0 /100WBC | PLATELET COUNT [4]: 1189 x10E3/uL | ALANINE AMINOTRANSFERASE [4]: 57 u/L | ALBUMIN [4]: 5 G/DL | ALKALINE PHOSPHATASE [4]: 591 u/L | ASPARTATE AMINOTRANSFERASE [4]: 173 u/L | BLOOD UREA NITROGEN [4]: 15.33 mg/dL | CARBON DIOXIDE [4]: 35 mmol/L | CHLORIDE [4]: 101.67 MEQ/L | CHOLESTEROL [4]: 56.67 mg/dL | CREATINE PHOSPHOKINASE [4]: 895.67 u/L | CREATININE [4]: 0.17 mg/dL | GLUCOSE [4]: 139.67 mg/dL | LACTATE DEHYDROGENASE [4]: 272.67 u/L | LIPASE [4]: 9 u/L | PHOSPHORUS [4]: 11.73 mg/dL | POTASSIUM [4]: 6.36 MEQ/L | SODIUM [4]: 146.87 MEQ/L | TOTAL BILIRUBIN [4]: 0.0667 mg/dL | TOTAL PROTEIN [4]: 6.1 G/DL | URIC ACID [4]: 1.1 mg/dL
